Results taken from paper PMC5397059, “Design, synthesis and structure-activity relationship study of wollamide B; a new potential anti TB agent” (PLoS ONE, 2017).
In brackets after ≈: the same amount, converted by molar mass. Several values for one entry are separate records, joined by “and”; a condition that tells them apart may be missing. Identical values can stand only once. Non-standard residues stand in square brackets, D forms with d. Residues, ends and D or L forms follow the SMILES beside them. dPhe(4-Cl) = N[C@H](Cc1ccc(Cl)cc1)C(=O)O; dOrn = NCCC[C@@H](N)C(=O)O

Assays:
mycobacteria = test system: mycobacteria; set-up: method as in PMID 25229313; conditions: cited from earlier work
Chrom logD assay = assay type: physicochemical; conditions: pH 7.4; read-out: Log D
In short: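 Reversed-phase C18 HPLC with fast acetonitrile gradient starting from 100% pH 7.4 buffer; CHI from retention times via calibration standards. ChromlogD = 0.0857CHI − 2.00; assay error ±3 CHI or ±0.25 ChromlogD.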

Mtb H37Rv = conditions: duplicate; analogues
human serum albumin [1] = biological target: T1, human serum albumin (Homo sapiens, UniProt P02768); assay: Human serum albumin (HSA) binding assay; assay type: in vitro ADME; conditions: human serum albumin binding
T1 sequence (P02768 25-609): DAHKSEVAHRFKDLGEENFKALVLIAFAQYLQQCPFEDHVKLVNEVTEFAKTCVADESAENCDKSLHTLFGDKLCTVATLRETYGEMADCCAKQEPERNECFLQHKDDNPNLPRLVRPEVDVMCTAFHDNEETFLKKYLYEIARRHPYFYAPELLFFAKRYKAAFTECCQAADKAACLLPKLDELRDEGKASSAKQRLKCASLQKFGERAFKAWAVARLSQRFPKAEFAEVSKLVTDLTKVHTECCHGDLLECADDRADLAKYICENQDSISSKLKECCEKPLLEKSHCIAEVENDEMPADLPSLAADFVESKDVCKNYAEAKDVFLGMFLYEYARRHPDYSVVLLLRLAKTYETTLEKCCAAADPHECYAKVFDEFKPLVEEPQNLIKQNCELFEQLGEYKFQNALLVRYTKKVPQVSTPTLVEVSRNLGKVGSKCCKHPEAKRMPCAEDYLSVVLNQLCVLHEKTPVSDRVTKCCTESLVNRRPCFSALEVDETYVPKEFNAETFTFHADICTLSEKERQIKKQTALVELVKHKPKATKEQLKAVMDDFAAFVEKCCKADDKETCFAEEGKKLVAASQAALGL
In short: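 Gradient retention times measured on an immobilized HSA HPLC column with UV detection. Retention times converted to HSA binding values by a linear calibration against reference compounds of known binding, run before each batch.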

[2] = Artificial membrane permeability assay; assay type: in vitro ADME; conditions: PAMPA, pH 7.4; passive artificial membrane permeability; read-out: Permeability
In short: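 PAMPA using L-α-phosphatidylcholine in cholesterol decane as the membrane, with 50 mM phosphate buffer containing 0.5% encapsin at pH 7.4 on both sides. Compound added to donor; plates shaken 3 h at room temperature in duplicate. Donor and receiver concentrations measured by HPLC; permeability reported in nm/sec.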

[3] = Intrinsic clearance (CLint) assay, human liver microsomes; assay type: in vitro ADME; conditions: for CLint Human: human liver microsomes; for half-life at 0.5 µM: human, pooled human liver microsomes, pH 7.4, human liver microsomes, read-out: Microsomal t1/2 Human; for % LBF Human: liver blood flow; for CLpred Human: predicted metabolic clearance
In short: (§1)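 Pooled liver microsomes (0.5 mg/mL protein) with test compound at 0.5 μM (0.5% DMSO), 5 mM MgCl2 and pH 7.4 phosphate buffer were run at 37°C; 1 mM NADPH started the reaction. Samples at 0-45 min were analysed by LC-MS/MS; t1/2 and CLint were derived from the ln peak-area-ratio slope.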

[4] = Plasma stability assay, mouse plasma; assay type: in vitro ADME; conditions: CD1, mouse, plasma; 2 hours at 37°C, triplicates; read-out: Plasma stability (% remaining) Mouse
Description: (§2) Plasma stability of the compounds was assessed in CD1 mouse and human plasma. Plasma was spiked with 1 μL of a 10 mM of each test compound solution to produce a 1 uM incubation. Three separate 300 μl aliquots were then taken from each tube and incubated at 37°C for 2 h. At each time point (0, 15, 30, 60 and 120 min), 50 μL of plasma were collected from each sample. Samples were extracted by protein precipitation with 250 μL of 0.1% AcOH acetonitrile methanol 3–1 (v/v) containing 1uM internal standard and centrifuged for 10min at 2800rpm. Supernatants were collected prior the injection onto an LC-MS/MS system. Analyte/Internal standard peak area ratios were referenced to the zero time-point samples as 100% in order to determine the percentage of compound remaining for each time-point. Ln plots of the % remaining for each compound were used to determine the half-life for the plasma incubations.

[5] = Chemi-Luminescent Nitrogen Detection (CLND) kinetic solubility assay; assay type: physicochemical; conditions: phosphate buffered saline, pH 7.4; kinetic aqueous solubility by CLND; read-out: Solubility
In short: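 10 mM DMSO stock diluted 5 μL into 100 uL pH 7.4 phosphate buffered saline, equilibrated 1 h at room temperature, then filtered. Filtrate quantified by calibrated flow-injection CLND; standard error ±30 μM, upper limit 500 μM.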

[6] = Intrinsic clearance (CLint) assay, mouse liver microsomes; assay type: in vitro ADME; conditions: for % LBF Mouse: liver blood flow; for CLint Mouse: mouse liver microsomes; for half-life at 0.5 µM: mouse, pooled mouse liver microsomes, pH 7.4, read-out: Microsomal t1/2 Mouse; for CLpred Mouse: predicted metabolic clearance
In short: as §1

[7] = Plasma stability assay, human plasma; assay type: in vitro ADME; conditions: human, plasma; 2 hours at 37°C, triplicates; read-out: Plasma stability (% remaining) Human
Description: as §2

human serum albumin [8] = biological target: T1, human serum albumin; assay: HPLC retention on an immobilised HSA column; HSA immobilised on the column; gradient retention times of the compounds converted to % HSA binding by a calibration set of compounds of known HSA binding; UV detection

Compound	antimycobacterial activity (mycobacteria)	chromatographic logD (Chrom logD assay)	MIC against Mtb H37Rv (Mtb H37Rv) [µM]	% HSA (human serum albumin [1])	Papp at 3 h [2] [×10⁻⁶ cm/s]	CLint Human [3] [mL/min/g tissue]	half-life at 0.5 µM [3] [h]	% LBF Human [3] [%]	CLpred Human [3] [mL/min/kg]	remaining at 2 h, 1 uM [4] [%]	solubility kinetic at 1 h [5] [µg/mL]	% LBF Mouse [6] [%]	CLint Mouse [6] [mL/min/g tissue]	half-life at 0.5 µM [6] [h]	CLpred Mouse [6] [mL/min/kg]	remaining at 2 h, 1 uM [7] [%]	% Human serum albumin binding (human serum albumin [8]) [%]
desotamide B	no antimycobacterial activity	–	–	–	–	–	–	–	–	–	–	–	–	–	–	–	–
CC(C)C[C@@H]1NC(=O)[C@H](Cc2c[nH]c3ccccc23)NC(=O)[C@@H](CCCN)NC(=O)[C@H](C)NC(=O)[C@H](C(C)C)NC(=O)[C@@H](CC(C)C)NC1=O [Compound 4c] (cyclo(A[dOrn]WL[dL]V))	–	2	20 (≈ 13.9 µg/mL)	83% and 82.76%	< 0.3	<0.40	> 2.31	<35.08	6.31	100	143 (≈ 205 µM)	<16.27	<0.48	> 2.31	<20.50	95	–
CC(C)C[C@@H]1NC(=O)[C@H](Cc2c[nH]c3ccccc23)NC(=O)[C@@H](CCCN)NC(=O)[C@H](CC(N)=O)NC(=O)[C@H](C(C)C)NC(=O)[C@@H](C)NC1=O [Compound 6c] (cyclo(L[dA]VN[dOrn]W))	–	1.04	>80	42.21%	< 1	0.73	1.25	49.94	8.99	102	≥ 196	<16.27	<0.48	> 2.31	<20.50	95	–
CC(C)C[C@@H]1NC(=O)[C@@H](Cc2ccc(Cl)cc2)NC(=O)[C@@H](CCCN)NC(=O)[C@H](CC(N)=O)NC(=O)[C@H](C(C)C)NC(=O)[C@@H](CC(C)C)NC1=O [Compound 14c] (cyclo(L[dL]VN[dOrn][dPhe(4-Cl)]))	–	1.9	40 (≈ 29.4 µg/mL)	70.25%	< 1	<0.40	> 2.31	<35.08	6.31	70	≥ 218	<16.27	<0.48	> 2.31	<20.50	104	–
CC(C)C[C@H]1NC(=O)[C@H](C)NC(=O)[C@H](Cc2c[nH]c3ccccc23)NC(=O)[C@@H](CCCN)NC(=O)[C@H](CC(N)=O)NC(=O)[C@H](C(C)C)NC1=O [Compound 2c] (cyclo(A[dL]VN[dOrn]W))	–	0.94	>80	43.14%	< 1	<0.40	> 2.31	<35.08	–	93	> 134	<16.27	<0.48	> 2.31	<20.50	107	–
wollamide B (peptide)	–	–	–	–	–	–	–	–	–	–	–	–	–	–	–	–	72.7
CC(C)C[C@@H]1NC(=O)[C@H](Cc2c[nH]c3ccccc23)NC(=O)[C@@H](CCCN)NC(=O)[C@H](CC(N)=O)NC(=O)[C@H](C)NC(=O)[C@@H](CC(C)C)NC1=O [Compound 5c] (cyclo(AN[dOrn]WL[dL]))	–	1.32	>80	56.76%	< 1	<0.40	> 2.31	<35.08	6.31	96	129 (≈ 181 µM)	<16.27	<0.48	> 2.31	<20.50	98	–
CC(C)C[C@@H]1NC(=O)[C@@H](CC(C)C)NC(=O)[C@@H](CCCN)NC(=O)[C@H](CC(N)=O)NC(=O)[C@H](C(C)C)NC(=O)[C@H](Cc2c[nH]c3ccccc23)NC1=O [Compound 21c] (cyclo(LWVN[dOrn][dL]))	–	1.89	20 (≈ 14.8 µg/mL)	79.64%	< 0.3	<0.40	> 2.31	<35.25	<6.35	98	≥ 210	<16.83	<0.50	> 2.31	<21.21	97	–
